# Assay results as given in US20250025443A1, “COMPOUNDS AND METHODS FOR TREATING CORONA VIRUSES” (CLEAR CREEK BIO, INC., priority 2021, published 2025).
# Target: SARS-CoV-2 Papain-Like Protease (PLpro) (Severe acute respiratory syndrome coronavirus 2 (2019-nCoV) (SARS-CoV-2), UniProt P0DTD1)
# Experiment: biochemical
# Settings: PLpro enzymatic fluorescence assay; class symbols; read-out: PLpro IC50
row,Compound,IC50 [µM]
1,"Cc1ccc(OC[C@@H]2CCN2)cc1C(=O)NC1(c2cc(-c3cc4ccccc4s3)cc3ncccc23)CC1 [Compound 695, (S)-5-(Azetidin-2-ylmethoxy)-N-(1-(7-(benzo[b]thiophen-2-yl)quinolin-5-yl)cyclopropyl)-2-methylbenzamide]",< 0.1
2,"Cc1ccc2c(C3(NC(=O)c4cc(OC[C@@H]5CCN5C)ccc4C)CC3)cc(N(C)S(C)(=O)=O)cc2n1 [Compound 819, (S)-2-Methyl-N-(1-(2-methyl-7-(N-methylmethylsulfonamido)quinolin-5-yl)cyclopropyl)-5-((1-methylazetidin-2-yl)methoxy)benzamide]",< 0.1
3,"CCc1cc(C2(NC(=O)c3cc(OCC4CCN4C)ccc3C)CC2)c2ccccc2c1 (centres unmarked) [Compound 516, N-(1-(3-Ethylnaphthalen-1-yl)cyclopropyl)-2-methyl-5-((1-methylazetidin-2-yl)methoxy)benzamide]",< 0.1
4,"Cc1ccc(OC[C@@H]2CCN2C)cc1C(=O)NC1(c2cc(C3=CCCCC3)cc3ncccc23)CC1 [Compound 663, (S)—N-(1-(7-(Cyclohex-1-en-1-yl)quinolin-5-yl)cyclopropyl)-2-methyl-5-((1-methylazetidin-2-yl)methoxy)benzamide]",< 0.1
5,"Cc1ccc(OC[C@@H]2CCN2)cc1C(=O)NC1(c2cc(-c3ccc(F)c(Cl)c3)cc3ncccc23)CC1 [Compound 666, (S)-5-(Azetidin-2-ylmethoxy)-N-(1-(7-(3-chloro-4-fluorophenyl)quinolin-5-yl)cyclopropyl)-2-methylbenzamide]",< 0.1
6,"Cc1ccc(OC[C@@H]2CCN2)cc1C(=O)NC1(c2cc(-c3ccc(C#N)s3)cc3ncccc23)CC1 [Compound 658, (S)-5-(Azetidin-2-ylmethoxy)-N-(1-(7-(5-cyanothiophen-2-yl)quinolin-5-yl)cyclopropyl)-2-methylbenzamide]",< 0.1
7,"Cc1ccc(OC[C@@H]2CCN2)cc1C(=O)NC1(c2cc(-c3ncccn3)cc3ncccc23)CC1 [Compound 682, (S)-5-(Azetidin-2-ylmethoxy)-2-methyl-N-(1-(7-(pyrimidin-2-yl)quinolin-5-yl)cyclopropyl)benzamide]",< 0.1
8,"(S)-2-Methyl-N-(1-(2-methyl-7-((2,2,2-trifluoroethyl)amino)quinolin-5-yl)cyclopropyl)-5-((1-methylazetidin-2-yl)methoxy)benzamide [Compound 807]",< 0.1

# Same assay, conditions: SARS-CoV-2 PLpro enzymatic fluorescence assay; read-out: PLpro IC50
row,Compound,IC50 [µM]
1,"CC(=O)N(c1ccc(C)c(C(=O)N[C@H](C)c2cccc3ccccc23)c1)C(CN)CO (stereo partly drawn) [Compound 165, 5-(N-(1-Amino-3-hydroxypropan-2-yl)acetamido)-2-methyl-N-((R)-1-(naphthalen-1-yl)ethyl)benzamide]",> 5
2,"C#CC(NC(=O)c1cc(N)ccc1C)c1cccc2ccccc12 (centres unmarked) [Compound 459, 5-Amino-2-methyl-N-(1-(naphthalen-1-yl)prop-2-yn-1-yl)benzamide]",> 5
3,"Cc1ccc(OC[C@@H]2CCN2)cc1C(=O)NC1(c2cccc3ncccc23)CC1 [Compound 381, (S)-5-(Azetidin-2-ylmethoxy)-2-methyl-N-(1-(quinolin-5-yl)cyclopropyl)benzamide]",< 0.1
4,"Cc1ccc(OC[C@H]2CCN2C)cc1C(=O)NC1(c2cccc3ncccc23)CC1 [Compound 390, (R)-2-Methyl-5-((1-methylazetidin-2-yl)methoxy)-N-(1-(quinolin-5-yl)cyclopropyl)benzamide]",< 0.1
5,"Cc1ccc(OCCN(C)C)cc1C(=O)NC1(c2cccc3cc(F)ccc23)CC1 [Compound 319, 5-(2-(Dimethylamino)ethoxy)-N-(1-(6-fluoronaphthalen-1-yl)cyclopropyl)-2-methylbenzamide]",< 0.1
6,"Cc1ccc(OCC2CCN2C)cc1C(=O)NC1(c2cccc3ccc(O)cc23)CC1 (centres unmarked) [Compound 477, N-(1-(7-Hydroxynaphthalen-1-yl)cyclopropyl)-2-methyl-5-((1-methylazetidin-2-yl)methoxy)benzamide]",< 0.1
7,"Cc1ccc(C2=CCNC2)cc1C(=O)NC1(c2cccc3ccccc23)CC1 [Compound 398, 5-(2,5-Dihydro-1H-pyrrol-3-yl)-2-methyl-N-(1-(naphthalen-1-yl)cyclopropyl)benzamide]",< 0.1
8,C[C@H](c1cccc2ccccc12)N1C[C@@H]2[C@H](C1)[C@H]2C(=O)NCc1cccc(F)c1 [Compound 149],> 5
9,"Cc1ccc(OC2COC2)cc1C(=O)N[C@H](C)c1cccc2ccccc12 [Compound 152, (R)-2-Methyl-N-(1-(naphthalen-1-yl)ethyl)-5-(oxetan-3-yloxy)benzamide]",1 to 5
10,"Cc1ccc(OCCN(C)C)cc1C(=O)NC1(c2ccccc2Br)CC1 [Compound 251, N-(1-(2-Bromophenyl)cyclopropyl)-5-(2-(dimethylamino)ethoxy)-2-methylbenzamide]",0.1 to 1
11,"COc1cc(C2(NC(=O)c3cc(OCC4CCN4C)ccc3C)CC2)c2ccc(F)cc2n1 (centres unmarked) [Compound 467, N-(1-(7-Fluoro-2-methoxyquinolin-4-yl)cyclopropyl)-2-methyl-5-((1-methylazetidin-2-yl)methoxy)benzamide]",< 0.1
12,"CC(=O)Nc1cc(C2(NC(=O)c3cc(OC[C@@H]4CCN4C)ccc3C)CC2)c2cccnc2c1 [Compound 744, (S)-N-(1-(7-Acetamidoquinolin-5-yl)cyclopropyl)-2-methyl-5-((1-methylazetidin-2-yl)methoxy)benzamide]",< 0.1
13,"Cc1ccc(OCC2CCN2C(C)C)cc1C(=O)NC1(c2cccc3ccccc23)CC1 (centres unmarked) [Compound 323, 5-((1-Isopropylazetidin-2-yl)methoxy)-2-methyl-N-(1-(naphthalen-1-yl)cyclopropyl)benzamide]",< 0.1
14,"Cc1cc2cc(CCN)[nH]c2cc1C(=O)NC1(c2cccc3ccccc23)CC1 [Compound 202, 2-(2-Aminoethyl)-5-methyl-N-(1-(naphthalen-1-yl)cyclopropyl)-1H-indole-6-carboxamide]",0.1 to 1
15,"Cc1ccc(NC2CNC2)cc1C(=O)NC1(c2cccc(-c3ccc(CN[C@H]4CC[C@@H](O)C4)s3)c2)CC1 [Compound 196, 5-(Azetidin-3-ylamino)-N-(1-(3-(5-((((1S,3R)-3-hydroxycyclopentyl)amino)methyl)thiophen-2-yl)phenyl)cyclopropyl)-2-methylbenzamide]",0.1 to 1
16,"Cc1cc2cc(CN)[nH]c2cc1C(=O)NCc1cccc2ccccc12 [Compound 241, 2-(Aminomethyl)-5-methyl-N-(naphthalen-1-ylmethyl)-1H-indole-6-carboxamide]",> 5
17,"Cc1ccc(OC[C@@H]2CCN2C)cc1C(=O)NC1(c2cc(N(C)C)nc3cc(F)ccc23)CC1 [Compound 611, (S)-N-(1-(2-(Dimethylamino)-7-fluoroquinolin-4-yl)cyclopropyl)-2-methyl-5-((1-methylazetidin-2-yl)methoxy)benzamide]",< 0.1
18,"Cc1ccc(OCCN(C)C)cc1C(=O)NC1(c2cccc(C)c2C)CC1 [Compound 318, 5-(2-(Dimethylamino)ethoxy)-N-(1-(2,3-dimethylphenyl)cyclopropyl)-2-methylbenzamide]",1 to 5
19,"C#CC(NC(=O)c1cc(OCC2CCN2C)ccc1C)c1cccc2ccccc12 (centres unmarked) [Compound 448, 2-Methyl-5-((1-methylazetidin-2-yl)methoxy)-N-(1-(naphthalen-1-yl)prop-2-yn-1-yl)benzamide]",1 to 5
20,"Cc1ccc(NC2CNC2)cc1C(=O)NC1(c2cccc(-c3ccc(CN4CCCC4)s3)c2)CC1 [Compound 186, 5-(Azetidin-3-ylamino)-2-methyl-N-(1-(3-(5-(pyrrolidin-1-ylmethyl)thiophen-2-yl)phenyl)cyclopropyl)benzamide]",0.1 to 1
21,"Cc1cc2c3c([nH]c2cc1C(=O)NC1(c2cccc4ccccc24)CC1)C(=O)CC3 [Compound 334, 7-Methyl-N-(1-(naphthalen-1-yl)cyclopropyl)-3-oxo-1,2,3,4-tetrahydrocyclopenta[b]indole-6-carboxamide]",1 to 5
22,"Cc1ccc(OCCNc2ccccc2)cc1C(=O)NC1(c2cccc3ccccc23)CC1 [Compound 315, 2-Methyl-N-(1-(naphthalen-1-yl)cyclopropyl)-5-(2-(phenylamino)ethoxy)benzamide]",1 to 5
23,"Cc1cc2cnn(C3CNC3)c2cc1C(=O)NC1(c2cccc3ccccc23)CC1 [Compound 304, 1-(Azetidin-3-yl)-5-methyl-N-(1-(naphthalen-1-yl)cyclopropyl)-1H-indazole-6-carboxamide]",< 0.1
24,"Cc1ccc(OC[C@@H]2CCN2C)cc1C(=O)NC1(c2cc(N(C)C)cc3ncccc23)CC1 [Compound 627, (S)-N-(1-(7-(Dimethylamino)quinolin-5-yl)cyclopropyl)-2-methyl-5-((1-methylazetidin-2-yl)methoxy)benzamide]",< 0.1
